The NIST ThermoML archive (doi:10.1016/j.jct.2005.12.003)
Numbers after ± are expanded uncertainties.

Key:
[1] = Liquid; for mass density: 298.15 K, 101.33 kPa; for vapor or sublimation pressure: refractive and density measurements
[2] = refractive index (Na D-line) (dimensionless); settings: 298.15 K; 101.33 kPa; Liquid; Standard Abbe refractometry

| mass density [1] [kg/m3] | refractive index [2] | vapor or sublimation pressure ([1]; 353.25 K) [kPa] | vapor or sublimation pressure ([1]; 353.89 K) [kPa] | SMILES | vapor or sublimation pressure ([1]; 404.82 K) [kPa] |
| --- | --- | --- | --- | --- | --- |
| 873.6 ± 0.2 | 1.49692 ± 0.00072 | 101.3 |  | c1ccccc1 [benzene] |  |
| 773.7 ± 0.3 | 1.4232 ± 0.00072 |  | 101.3 | C1CCCCC1 [cyclohexane] |  |

| SMILES | mass density [1] [kg/m3] | refractive index [2] | vapor or sublimation pressure ([1]; 353.25 K) [kPa] | vapor or sublimation pressure ([1]; 353.89 K) [kPa] | vapor or sublimation pressure ([1]; 404.82 K) [kPa] |
| --- | --- | --- | --- | --- | --- |
| Clc1ccccc1 [chlorobenzene] | 1100.8 ± 0.5 | 1.52176 ± 0.00075 |  |  | 101.3 |
